The series concerns CCRIS mutagenicity, Ames/micronucleus/aberration tests. Briefly: CCRIS mutagenicity studies.
[1] abbreviates: Test System: AMES SALMONELLA TYPHIMURIUM, Strain/Indicator: TA98, Metabolic Activation: NONE, Method: PREINCUBATION
The mark [2] stands for this setting: Test System: AMES SALMONELLA TYPHIMURIUM, Strain/Indicator: TA100, Metabolic Activation: NONE, Method: PREINCUBATION
The mark [3] stands for this setting: Test System: AMES SALMONELLA TYPHIMURIUM, Strain/Indicator: TA1535, Metabolic Activation: NONE, Method: PREINCUBATION
Setting [4] is: Test System: AMES SALMONELLA TYPHIMURIUM, Strain/Indicator: TA1537, Metabolic Activation: NONE, Method: PREINCUBATION
Setting [5] is: Test System: AMES SALMONELLA TYPHIMURIUM, Strain/Indicator: TA98, Metabolic Activation: NONE, Method: STANDARD PLATE.
Setting [6] is: Test System: AMES SALMONELLA TYPHIMURIUM, Strain/Indicator: TA100, Metabolic Activation: NONE, Method: STANDARD PLATE.

Active and inactive are the calls of the source. The rule behind the calls is not given here.

As to `COC(C)CCO` (stereo not drawn), the mutagenic call under setting [1] is “inactive; negative”; the mutagenic call (Test System: AMES SALMONELLA TYPHIMURIUM, Strain/Indicator: TA98, Metabolic Activation: RAT LIVER S-9, PHENOBARBITAL AND BETA-NAPHTHOFLAVONE, Method: PREINCUBATION) is “inactive; negative”; the mutagenic call under setting [2] was “inactive; negative”; the mutagenic call (Test System: AMES SALMONELLA TYPHIMURIUM, Strain/Indicator: TA100, Metabolic Activation: RAT LIVER S-9, PHENOBARBITAL AND BETA-NAPHTHOFLAVONE, Method: PREINCUBATION) is “inactive; negative”; the mutagenic call under setting [3] was “inactive; negative”; the mutagenic call (Test System: AMES SALMONELLA TYPHIMURIUM, Strain/Indicator: TA1535, Metabolic Activation: RAT LIVER S-9, PHENOBARBITAL AND BETA-NAPHTHOFLAVONE, Method: PREINCUBATION) is “inactive; negative”. The mutagenic call under setting [4] is “inactive; negative”; the mutagenic call (Test System: AMES SALMONELLA TYPHIMURIUM, Strain/Indicator: TA1537, Metabolic Activation: RAT LIVER S-9, PHENOBARBITAL AND BETA-NAPHTHOFLAVONE, Method: PREINCUBATION) was “inactive; negative”; the mutagenic call (Test System: E.COLI, Strain/Indicator: WP2UVRA/PKM101, Metabolic Activation: NONE, Method: PREINCUBATION) was “inactive; negative”; the mutagenic call (Test System: E.COLI, Strain/Indicator: WP2UVRA/PKM101, Metabolic Activation: RAT LIVER S-9, PHENOBARBITAL AND BETA-NAPHTHOFLAVONE, Method: PREINCUBATION) was “inactive; negative”.
Turning to `Cc1c2ccccc2cc2c3c(ccc12)C(=O)C(=O)C=C3`, the mutagenic call runs as follows: (Test System: AMES SALMONELLA TYPHIMURIUM, Strain/Indicator: TA97A, Metabolic Activation: NONE, Method: PREINCUBATION) “active; positive”; under setting [1], “inactive; negative”; under setting [2], “inactive; negative”; (Test System: AMES SALMONELLA TYPHIMURIUM, Strain/Indicator: TA102, Metabolic Activation: NONE, Method: PREINCUBATION) “inactive; negative”; (Test System: AMES SALMONELLA TYPHIMURIUM, Strain/Indicator: TA104, Metabolic Activation: NONE, Method: PREINCUBATION) “inactive; negative”.
With `Cn1c2ccccc2c2ccc([N+](=O)[O-])cc21`, the mutagenic call is, setting by setting: under setting [5], “active; positive”; (Test System: AMES SALMONELLA TYPHIMURIUM, Strain/Indicator: TA98, Metabolic Activation: RAT LIVER S-9, AROCLOR 1254, Method: STANDARD PLATE) “active; positive”; under setting [6], “active; positive”; (Test System: AMES SALMONELLA TYPHIMURIUM, Strain/Indicator: TA100, Metabolic Activation: RAT LIVER S-9, AROCLOR 1254, Method: STANDARD PLATE) “active; positive”.
As for `Cc1ccccc1NO`, the mutagenic call was “inactive; negative” under setting [5]; “inactive; negative” (Test System: AMES SALMONELLA TYPHIMURIUM, Strain/Indicator: TA98, Metabolic Activation: RAT, LIVER, S-9, AROCLOR 1254, Method: PREINCUBATION); “inactive; negative” (Test System: AMES SALMONELLA TYPHIMURIUM, Strain/Indicator: TA98, Metabolic Activation: RAT, LIVER, S-9, AROCLOR 1254, Method: STANDARD PLATE); “inactive; negative” under setting [6]; “active; positive” (Test System: AMES SALMONELLA TYPHIMURIUM, Strain/Indicator: TA100, Metabolic Activation: RAT, LIVER, S-9, AROCLOR 1254, Method: STANDARD PLATE); “active; positive” (Test System: AMES SALMONELLA TYPHIMURIUM, Strain/Indicator: TA100, Metabolic Activation: RAT, LIVER, S-9, PCB, Method: PREINCUBATION).
As to `CC(O)CN(CC(C)O)CC(C)O` (stereo not drawn), the mutagenic call (Test System: AMES SALMONELLA TYPHIMURIUM, Strain/Indicator: TA98, Metabolic Activation: HAMSTER, LIVER, S-9, AROCLOR 1254 (10%), Method: PREINCUBATION) was “inactive; negative”; the mutagenic call under setting [1] is “inactive; negative”; the mutagenic call (Test System: AMES SALMONELLA TYPHIMURIUM, Strain/Indicator: TA98, Metabolic Activation: RAT, LIVER, S-9, AROCLOR 1254 (10%), Method: PREINCUBATION) is “inactive; negative”; the mutagenic call (Test System: AMES SALMONELLA TYPHIMURIUM, Strain/Indicator: TA100, Metabolic Activation: HAMSTER, LIVER, S-9, AROCLOR 1254 (10%), Method: PREINCUBATION) is “inactive; negative”; the mutagenic call under setting [2] is “inactive; negative”; the mutagenic call (Test System: AMES SALMONELLA TYPHIMURIUM, Strain/Indicator: TA100, Metabolic Activation: RAT, LIVER, S-9, AROCLOR 1254 (10%), Method: PREINCUBATION) was “inactive; negative”. Further, the mutagenic call (Test System: AMES SALMONELLA TYPHIMURIUM, Strain/Indicator: TA1535, Metabolic Activation: HAMSTER, LIVER, S-9, AROCLOR 1254 (10%), Method: PREINCUBATION) is “inactive; negative”; the mutagenic call under setting [3] was “inactive; negative”; the mutagenic call (Test System: AMES SALMONELLA TYPHIMURIUM, Strain/Indicator: TA1535, Metabolic Activation: RAT, LIVER, S-9, AROCLOR 1254 (10%), Method: PREINCUBATION) is “inactive; negative”; the mutagenic call (Test System: AMES SALMONELLA TYPHIMURIUM, Strain/Indicator: TA1537, Metabolic Activation: HAMSTER, LIVER, S-9, AROCLOR 1254 (10%), Method: PREINCUBATION) is “inactive; negative”; the mutagenic call under setting [4] is “inactive; negative”; the mutagenic call (Test System: AMES SALMONELLA TYPHIMURIUM, Strain/Indicator: TA1537, Metabolic Activation: RAT, LIVER, S-9, AROCLOR 1254 (10%), Method: PREINCUBATION) is “inactive; negative”.
Consider `Oc1ccc2[nH]ccc2c1`, for which the mutagenic call under setting [2] is “inactive; negative”.

Source of the values: PubChem BioAssay AID1259407 (Chemical Carcinogenesis Research Information System (CCRIS), 2018).
